Entries after “also recorded” stand apart in the source; their conditions may differ.
What was measured:
[1] = system: IMG; test: CellTiter-Glo cell viability, IMG; format: cell-based, murine; details: Mus musculus
Experimental: BzFβ was then examined for its effect on the viability of several murine and human cell lines and primary murine splenocytes. The cytotoxicity of BzFβ was assessed using the CellTiter-Glo […] assay system according to manufacturer's instructions to determine BzFβ's effect on the viability of several murine and human cell lines and primary murine splenocytes.
DC2.4 cell line (Dr. Kenneth Rock, University of Massachusetts), RAW 264.7 cell line (American Type Culture Collection (ATCC), Manassas, VA; TIB 71), and IMG cell line (Millipore™, Merck KGaA, Burlington, MA; cat. no. SC-C134) were each cultured in complete Dulbecco's Modified Eagle Medium (cDMEM) containing […] glucose (Gibco™, Thermo Fisher Scientific Inc., Waltham, MA; cat. no. 10566-016) and supplemented with GlutaMAX, 50 U/mL penicillin and 50 µg/mL streptomycin (Gibco™; cat. no. 15070-063) and 10% heat inactivated fetal bovine serum (FBS) (R&D Systems, Inc., Minneapolis, MN; cat. no. […]
The cytotoxicity of BzFβ was assessed using the CellTiter-Glo cell […] viability assay system […] cat. no. […] CellTiter-Glo was added 1:1 in the media and the level of chemiluminescence was measured using luminescence at wavelengths of 200 nm to 700 nm through a photomultiplier on BioTek's Synergy HTX multimode microplate reader. […]

[2] = target: T1, H-2Db on DC2.4 (Mus musculus, UniProt P01899); test: FITC-labeled HPV peptide RAHYNIVTF binding to DC2.4; format: cell-based, murine; details: 25 µg/mL BzFβ 4 or 24 h, 1 h pulse
T1 construct: DC2.4 are a C57Bl/6 lineage murine cell line and as such they express MHC class I H-2Kb and H-2Db; endogenous in cells; host or cells: DC2.4
T1 sequence (P01899 25-362): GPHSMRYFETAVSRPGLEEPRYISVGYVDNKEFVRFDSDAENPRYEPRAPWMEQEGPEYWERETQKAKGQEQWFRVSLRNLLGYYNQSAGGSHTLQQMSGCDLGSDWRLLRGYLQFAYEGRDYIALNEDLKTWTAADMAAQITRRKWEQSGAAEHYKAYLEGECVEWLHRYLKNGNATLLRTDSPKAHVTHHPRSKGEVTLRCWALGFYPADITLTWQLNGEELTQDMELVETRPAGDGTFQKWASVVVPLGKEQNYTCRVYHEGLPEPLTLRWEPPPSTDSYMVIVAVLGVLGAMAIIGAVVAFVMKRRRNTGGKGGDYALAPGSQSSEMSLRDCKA
T1 sequence (P01887 21-119 partner): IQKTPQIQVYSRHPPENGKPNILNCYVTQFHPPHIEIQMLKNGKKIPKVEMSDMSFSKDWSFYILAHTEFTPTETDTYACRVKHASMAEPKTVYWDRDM
Experimental: For peptide loading studies, cultured cells were treated for various times as indicated in results and figure legends. Cells were centrifuged and washed using cold FACS buffer (DPBS with 5% FBS, 2 mM EDTA, 0.1% sodium azide). Cells were blocked using Fc block (bioLegend™; cat. no. 101320) for 10 min to 15 min to inhibit non-specific binding, followed by staining with fluorophore-conjugated antibody PE-labeled anti-MHC I/SIINFEKL (clone 25-D1.16, Invitrogen 12-5743-82), for 30 min at 4° C. For N-terminal FITC labeled H-2Db peptide RAHYNIVTF (AnaSpec Inc., Fremont, CA; cat. no.) cells were incubated with peptide for 1-4 h before washing and analysis. After washing, the cells were subjected to flow cytometric analysis with the Attune NxT Flow Cytometer (Invitrogen™). Cells were gated based on live single-cell populations and positives were assessed using isotype controls and fluor-minus-one analysis when needed. Data were analyzed using the Attune NxT software or FlowJo versions 10.7 and 10.8.
Cells were cultured as previously described and treated for various times as indicated in results and figure legends. […] Cells were gated based on live single-cell populations and positives were assessed using isotype controls and fluor-minus-one analysis when needed. Data were analyzed using the Attune NxT software or FlowJo versions 10.7 and 10.8. […]

O=C(O)/C=C/c1ccc2occc2c1 [BzFβ, (2E)-3-(1-benzofuran-5-yl)prop-2-enoic acid]
IC50 [1]: 316 µM | binding of FITC labeled HPV peptide to H-2Db [2]: enhance peptide binding on both haplotypes; also recorded: significant increase in peptide binding

— US20250381165A1, “Method of Use for Benzofuran Compounds” (Tampa Bay Research Institute, Inc., priority 2024, published 2025)
